# Data as given in patent publication US20230339851A1, “CXCR6 SULFONAMIDE COMPOUNDS” (CHEMOCENTRYX, INC., priority 2022, published 2023).
# Target: T1, human CXCR6 (Homo sapiens, UniProt O00574)
# T1 construct: expressed in transfected cells
# Assay: Radioligand Binding Assay (125I-CXCL16 displacement)
# Settings: L1.2 cells stably transfected with human CXCR6 cDNA, 0.1 nM 125I-CXCL16, 4° C., three-hour incubation; read-out: Potency (IC50)
# How it was run: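 L1.2 cells stably expressing human CXCR6 incubated 3 h at 4 °C in HBSS/0.1% BSA with 0.1 nM 125I-CXCL16 and graded compound concentrations. Bound radioactivity collected by filtration and counted; IC50 from 3-parameter nonlinear regression.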
# T1 sequence (O00574 whole entry): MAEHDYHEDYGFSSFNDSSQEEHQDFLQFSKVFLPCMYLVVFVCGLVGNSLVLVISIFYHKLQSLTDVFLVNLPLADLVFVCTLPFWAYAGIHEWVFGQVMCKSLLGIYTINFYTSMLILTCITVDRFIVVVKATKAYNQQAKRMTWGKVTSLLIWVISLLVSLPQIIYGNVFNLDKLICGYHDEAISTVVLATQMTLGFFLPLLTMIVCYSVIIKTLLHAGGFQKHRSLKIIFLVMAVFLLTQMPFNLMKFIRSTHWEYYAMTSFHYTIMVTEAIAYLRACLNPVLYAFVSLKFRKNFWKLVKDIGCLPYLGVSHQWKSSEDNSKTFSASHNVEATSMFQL
row,IC50,SMILES
1,2000 to 20000 nM,CCOc1cc(NC(=O)[C@@H](O)C(C)C)ccc1S(=O)(=O)Nc1cccc(Cl)c1OC [Example 1.216]
2,200 to 750 nM,CCOCCOCCC(C(=O)O)C(=O)Nc1ccc(S(=O)(=O)Nc2cccc(OC(F)(F)F)c2)c(OCC)c1 (centres unmarked) [Example 1.476]
3,2000 to 20000 nM,CCOc1cc(NC(=O)[C@@H](CO)C(C)C)ccc1S(=O)(=O)Nc1cccc(C(C)(C)O)c1 [Example 1.353]
4,200 to 750 nM,CCOc1cc(NC(=O)C(C)C(O)C2CC3C=CC2C3)ccc1S(=O)(=O)Nc1cccc(OC(F)(F)F)c1 (centres unmarked) [Example 1.517]
5,200 to 750 nM,CCOc1cc(NC(=O)[C@@H](CO)c2ccccc2)ccc1S(=O)(=O)Nc1ccc(Cl)c(OC)c1 [Example 1.550]
6,≤ 200 nM,CCOc1cc(NC(=O)C(CO)c2ccccc2)ccc1S(=O)(=O)Nc1cccc(OC(F)(F)F)c1 (centres unmarked) [Example 1.473]
7,2000 to 20000 nM,CCOc1cc(NC(=O)C2CCC(=O)N(CC)C2)ccc1S(=O)(=O)Nc1cccc(OC(F)(F)F)c1 (centres unmarked) [Example 1.120]
8,2000 to 20000 nM,Cc1cc(NC(=O)C2CCCO2)ccc1S(=O)(=O)Nc1cccc(C(F)(F)F)c1 (centres unmarked) [Example 1.271]
9,≤ 200 nM,CCOc1cc(NC(=O)[C@@H](O)c2ccccc2)ccc1S(=O)(=O)Nc1cccc(OC(F)(F)F)c1 [Example 1.168]
10,200 to 750 nM,CCOc1cc(NC(=O)[C@H]2CC=CC[C@H]2O)ccc1S(=O)(=O)Nc1cccc(OC(F)(F)F)c1 [Example 1.173]
11,≤ 200 nM,CCOc1cc(NC(=O)[C@@H](O)C(C)C)ccc1S(=O)(=O)Nc1ccc(F)c(CC)c1 [Example 1.431]
12,200 to 750 nM,CCOc1cc(NS(=O)(=O)c2ccc(NC(=O)[C@@H](CO)C(C)C)cc2OCC)ccc1Cl [Example 1.488]
13,2000 to 20000 nM,CC(=O)Nc1ccc(S(=O)(=O)Nc2cccc(C(F)(F)F)c2)c(C)c1 [Example 1.321]
14,750 to 2000 nM,CCOc1cc(NC(=O)C2(c3ccccc3)CC2)ccc1S(=O)(=O)Nc1cccc(OC(F)(F)F)c1 [Example 1.394]
15,200 to 750 nM,CCOc1cc(NC(=O)[C@@H](CO)C(C)C)ccc1S(=O)(=O)Nc1cccc(Cl)c1Cl [Example 1.054]
16,≤ 200 nM,CCOc1cc(NC(=O)[C@@H](O)C(C)C)ccc1S(=O)(=O)Nc1ccc(CC)c(C(F)(F)F)c1 [Example 1.411]
17,200 to 750 nM,CCOc1cc(NC(=O)[C@@H](CO)c2ccccc2)ccc1S(=O)(=O)Nc1ccc(OC)c(C(F)(F)F)c1 [Example 1.546]
18,750 to 2000 nM,COc1cc(NC(=O)c2ccnn2C)ccc1S(=O)(=O)Nc1ccc2c(c1)OC(F)(F)O2 [Example 1.582]
19,200 to 750 nM,CCOc1cc(NC(=O)[C@@H](CO)c2ccccc2)ccc1S(=O)(=O)Nc1ccc(Cl)c(C(F)(F)F)c1 [Example 1.178]
20,≤ 200 nM,CCOc1cc(NC(=O)[C@@H](N)C(C)O)ccc1S(=O)(=O)Nc1cccc(OC(F)(F)F)c1 (some centres unmarked) [Example 1.032]
21,2000 to 20000 nM,COc1cc(NC(=O)c2ccnn2C)ccc1S(=O)(=O)Nc1cccc(C#N)c1 [Example 1.331]
22,≤ 200 nM,CCOc1cc(NC(=O)[C@@H](O)C(C)C)ccc1S(=O)(=O)Nc1ccc(C2CC2)c(OC(F)(F)F)c1 [Example 1.521]
23,≤ 200 nM,O=C(Nc1ccc(S(=O)(=O)Nc2cccc(OC(F)(F)F)c2)c(Cl)c1)[C@@H](CO)c1ccccc1 [Example 1.196]
24,750 to 2000 nM,CCOc1cc(NC(=O)CC(O)c2cccnc2)ccc1S(=O)(=O)Nc1cccc(OC(F)(F)F)c1 (centres unmarked) [Example 1.236]
25,750 to 2000 nM,CCOc1cc(NC(=O)[C@@H](CO)c2ccccc2)ccc1S(=O)(=O)Nc1ccc(C)c(F)c1 [Example 1.184]
26,200 to 750 nM,CCOc1cc(NC(=O)Cc2ccccc2OC)ccc1S(=O)(=O)Nc1cccc(OC(F)(F)F)c1 [Example 1.566]
27,200 to 750 nM,COc1cc(NC(=O)c2ccccc2)ccc1S(=O)(=O)Nc1cccc(C(F)(F)F)c1 [Example 1.040]
28,750 to 2000 nM,COc1cc(NC(=O)c2cc(C(F)(F)F)nn2C)ccc1S(=O)(=O)Nc1cccc(C(F)(F)F)c1 [Example 1.430]
29,≤ 200 nM,CCOc1cc(NC(=O)C2CC=CC[C@@H]2O)ccc1S(=O)(=O)Nc1ccc(C)c(OC(F)(F)F)c1 (some centres unmarked) [Example 1.172]
